The results in this text go back to US20070128217A1 (priority 2003, published 2007).

Experiment [1] deals with rabbit serum obtained by immunizing a rabbit with the SARS-CoV strain Frankfurt 1. The format is binding. Set-up: Binding of a rabbit serum to linear peptides / Binding of a rabbit serum to looped peptides / Rabbit serum linear peptides / Rabbit serum looped peptides / Binding of a rabbit serum to linear peptides of protein N of SARS-CoV Urbani (Rabbit serum linear peptides) / Binding of a rabbit serum to looped/cyclic peptides of protein N of SARS-CoV Urbani (Rabbit serum looped peptides): unit not given here.

Experiment [2] concerns antibodies in sera from SARS patients (sera 1a, 1b, 2, 6, 37, 62, London, SARS-yellow, SARS-green). The experiment is classed as binding, human. Set-up: Binding of serum 6 to linear peptides of protein X1 of SARS-CoV Urbani / Binding of serum 37 to linear peptides of protein X1 of SARS-CoV Urbani / Binding of serum 6 to looped/cyclic peptide (PEPSCAN-ELISA) / Binding of serum 37 to looped/cyclic peptide (PEPSCAN-ELISA) / Binding of serum 37 to looped/cyclic peptides of protein X1 of SARS-CoV Urbani / Binding of serum 6 to linear peptides of protein X2 / Binding of serum 37 to linear peptides of protein X2 / Binding of serum 37 to looped/cyclic peptides of protein X2 of SARS-CoV Urbani / Binding of serum 6 to linear peptides of protein M of SARS-CoV Urbani / Binding of serum 37 to linear peptides of protein M of SARS-CoV Urbani / Binding of serum 6 to looped/cyclic peptides of protein M of SARS-CoV Urbani / Binding of serum 37 to looped/cyclic peptides of protein M of SARS-CoV Urbani / Binding of serum 6 to linear peptides of protein X3 of SARS-CoV Urbani / Binding of serum 37 to linear peptides of protein X3 of SARS-CoV Urbani / Binding of serum 37 to looped/cyclic peptides of protein X3 of SARS-CoV Urbani / Binding of serum 6 to linear peptides of protein X4 of SARS-CoV Urbani / Binding of serum 37 to linear peptides of protein X4 of SARS-CoV Urbani / Binding of serum 37 to looped/cyclic peptides of protein X4 of SARS-CoV Urbani / Binding of serum 6 to linear peptides of protein X5 of SARS-CoV Urbani / Binding of serum 37 to linear peptides of protein X5 of SARS-CoV Urbani / Binding of serum 37 to looped/cyclic peptides of protein X5 of SARS-CoV Urbani / Binding of serum 6 to linear peptides of protein N of SARS-CoV Urbani / Binding of serum 37 to linear peptides of protein N of SARS-CoV Urbani / Binding of serum 6 to linear peptide (PEPSCAN-ELISA) / Binding of serum 1a to looped/cyclic peptides of protein N of SARS-CoV Urbani / Binding of serum 1b to looped/cyclic peptides of protein N of SARS-CoV Urbani / Binding of serum 2 to looped/cyclic peptides of protein N of SARS-CoV Urbani / Binding of serum 6 to looped/cyclic peptides of protein N of SARS-CoV Urbani / Binding of serum 37 to looped/cyclic peptides of protein N of SARS-CoV Urbani / Binding of serum 62 to looped/cyclic peptides of protein N of SARS-CoV Urbani / Binding of serum London to looped/cyclic peptides of protein N of SARS-CoV Urbani / Binding of serum SARS-green to looped/cyclic peptides of protein N of SARS-CoV Urbani: unit not given here.

With ARCWYLHEGHQTAAF, in experiment [1], the “Rabbit serum linear peptides” value was determined as 0.3 and the “Rabbit serum looped peptides” value was 0.6.

For the sequence AVIIRGHLRMAGHPL, in experiment [1], the “Rabbit serum linear peptides” value stood at 0.3 and the “Rabbit serum looped peptides” value amounted to 0.6.

For the sequence DNASPASTVHATATI, in experiment [1], the “Binding of a rabbit serum to linear peptides” value is given as 0.7 and the “Binding of a rabbit serum to looped peptides” value (shortened to “Binding … to looped peptides”) is listed as 0.3.

Consider EELKQLLEQWNLVIG, for which, in experiment [1], the “Rabbit serum linear peptides” value is 0.4 and the “Rabbit serum looped peptides” value is 0.4.

With EGNSPFHPLADNKFA, in experiment [1], the “Rabbit serum linear peptides” value is listed as 0.7 and the “Rabbit serum looped peptides” value came out at 0.7.

For FAGTHITMTTVYHIT, in experiment [1], the “Binding of a rabbit serum to linear peptides” value is 0.6 and the “Binding … to looped peptides” value came out at 0.4.

Turning to FICNLLLLFVTIYSH, in experiment [2], the “Binding of serum 1a to linear peptides of protein X1 of SARS-CoV Urbani” value was 0.6, the “Binding of serum 1a to looped/cyclic peptide (PEPSCAN-ELISA)” value amounted to 0.5, the “Binding of serum 1b to linear peptides of protein X1 of SARS-CoV Urbani” value was 0.6 and the “Binding of serum 1b to looped/cyclic peptide (PEPSCAN-ELISA)” value is reported as 0.3. Further, in experiment [2], the “Binding of serum 2 to linear peptides of protein X1 of SARS-CoV Urbani” value stood at 0.6, the “Binding of serum 2 to looped/cyclic peptide (PEPSCAN-ELISA)” value was determined as 0.4, the “Binding of serum 6 to linear peptides of protein X1 of SARS-CoV Urbani” value came to 0.4 and the “Binding of serum 6 to looped/cyclic peptide (PEPSCAN-ELISA)” value is 0.2. In addition, in experiment [2], the “Binding of serum 37 to linear peptides of protein X1 of SARS-CoV Urbani” value stood at 0.5, the “Binding of serum 37 to looped/cyclic peptide (PEPSCAN-ELISA)” value stood at 0.5, the “Binding of serum 62 to linear peptides of protein X1 of SARS-CoV Urbani” value was 0.5 and the “Binding of serum 62 to looped/cyclic peptide (PEPSCAN-ELISA)” value was determined as 0.5. In experiment [2], the “Binding of serum London to linear peptides of protein X1 of SARS-CoV Urbani” value is on record as 0.3, the “Binding of serum London to looped/cyclic peptide (PEPSCAN-ELISA)” value amounted to 0.2, the “Binding of serum SARS-green to linear peptides of protein X1 of SARS-CoV Urbani” value was determined as 0.2 and the “Binding of serum SARS-green to looped/cyclic peptide (PEPSCAN-ELISA)” value is recorded as 0.3. Also, in experiment [2], the “Binding of serum SARS-yellow to linear peptides of protein X1 of SARS-CoV Urbani” value turned out to be 0.4 and the “Binding of serum SARS-yellow to looped/cyclic peptide (PEPSCAN-ELISA)” value is 0.5. In experiment [1], the “Binding of a rabbit serum to linear peptides” value came to 0.1 and the “Binding … to looped peptides” value is 0.5.

GAVIIRGHLRMAGHP: in experiment [1], the “Rabbit serum linear peptides” value was found to be 0.8 and the “Rabbit serum looped peptides” value is on record as 0.5.

As for GFQFIGNLLLLFVTI, in experiment [1], the “Binding of a rabbit serum to linear peptides” value is given as 0.9 and the “Binding … to looped peptides” value is given as 0.5.

GTITVEELKQLLEQW: the “Recognition of the peptide by the rabbit serum” value (from here on “Recognition of the peptide”) in experiment [1] is recorded as “recognized”.

As to HLRMAGHPLGRCDIK, in experiment [1], the “Rabbit serum linear peptides” value was determined as 0.0 and the “Rabbit serum looped peptides” value amounted to 0.5.

In the case of HRWHTMVQTCTPNVT, in experiment [2], the “Binding of serum 1a to linear peptides of protein X5 of SARS-CoV Urbani” value was found to be 0.7, the “Binding of serum 1a to looped/cyclic peptides of protein X5 of SARS-CoV Urbani” value worked out at 0.6, the “Binding of serum 1b to linear peptides of protein X5 of SARS-CoV Urbani” value turned out to be 0.6 and the “Binding of serum 1b to looped/cyclic peptides of protein X5 of SARS-CoV Urbani” value is recorded as 0.5. Besides, in experiment [2], the “Binding of serum 2 to linear peptides of protein X5 of SARS-CoV Urbani” value is 0.8, the “Binding of serum 2 to looped/cyclic peptides of protein X5 of SARS-CoV Urbani” value came to 0.5, the “Binding of serum 6 to linear peptides of protein X5 of SARS-CoV Urbani” value came to 0.5 and the “Binding of serum 6 to looped/cyclic peptides of protein X5 of SARS-CoV Urbani” value is 0.3. In experiment [2], the “Binding of serum 37 to linear peptides of protein X5 of SARS-CoV Urbani” value came out at 0.7, the “Binding of serum 37 to looped/cyclic peptides of protein X5 of SARS-CoV Urbani” value amounted to 0.3, the “Binding of serum 62 to linear peptides of protein X5 of SARS-CoV Urbani” value is 0.8 and the “Binding of serum 62 to looped/cyclic peptides of protein X5 of SARS-CoV Urbani” value was 0.3. In addition, in experiment [2], the “Binding of serum London to linear peptides of protein X5 of SARS-CoV Urbani” value is 0.7, the “Binding of serum London to looped/cyclic peptides of protein X5 of SARS-CoV Urbani” value was found to be 0.1, the “Binding of serum SARS-green to linear peptides of protein X5 of SARS-CoV Urbani” value came out at 0.5 and the “Binding of serum SARS-green to looped/cyclic peptides of protein X5 of SARS-CoV Urbani” value is given as 0.3. In experiment [2], the “Binding of serum SARS-yellow to linear peptides of protein X5 of SARS-CoV Urbani” value amounted to 0.5 and the “Binding of serum SARS-yellow to looped/cyclic peptides of protein X5 of SARS-CoV Urbani” value was 0.2. Further, in experiment [1], the “Rabbit serum linear peptides” value is on record as 0.7 and the “Rabbit serum looped peptides” value is 0.3.

Turning to IANACIVGLMWLSYF, in experiment [1], the “Rabbit serum linear peptides” value came out at 0.1 and the “Rabbit serum looped peptides” value was 0.0.

For IGAVIIRGHLRMAGH, in experiment [1], the “Rabbit serum linear peptides” value was 0.3 and the “Rabbit serum looped peptides” value is 0.8.

For the sequence IRGHLRMAGHPLGRC, in experiment [1], the “Rabbit serum linear peptides” value was 1.2 and the “Rabbit serum looped peptides” value is on record as 0.4.

Take ITVEELKQLLEQWNL: in experiment [1], the “Recognition of the peptide” value is recorded as “recognized”.

Turning to KQLLEQWNLVIGFLP, in experiment [1], the “Rabbit serum linear peptides” value was determined as 0.0 and the “Rabbit serum looped peptides” value amounted to 0.1.

Turning to LHEGHQTAAFRDVLV, in experiment [1], the “Rabbit serum linear peptides” value is recorded as 0.5 and the “Rabbit serum looped peptides” value was 0.7.

With RCWYLHEGHQTAAFR, in experiment [1], the “Rabbit serum linear peptides” value was 0.9 and the “Rabbit serum looped peptides” value was found to be 0.4.

RGHLRMAGHPLGRCD: in experiment [1], the “Rabbit serum linear peptides” value was 0.0 and the “Rabbit serum looped peptides” value is 0.3.

SPFHPLADNKFALTC: in experiment [1], the “Rabbit serum linear peptides” value was 0.4 and the “Rabbit serum looped peptides” value is 0.5.

Regarding TLGSITAQPVKIDNA, in experiment [1], the “Binding of a rabbit serum to linear peptides” value came to 0.8 and the “Binding … to looped peptides” value came to 0.4.

With TVEELKQLLEQWNLV, the “Recognition of the peptide” value in experiment [1] is “recognized”.

TVHATATIPLQASLP: in experiment [1], the “Binding of a rabbit serum to linear peptides” value is 0.4 and the “Binding … to looped peptides” value came out at 0.5.

Consider TYEGNSPFHPLADNK, for which, in experiment [1], the “Rabbit serum linear peptides” value worked out at 0.7 and the “Rabbit serum looped peptides” value is recorded as 0.4.

Take VHATATIPLQASLPF: in experiment [1], the “Binding of a rabbit serum to linear peptides” value was determined as 0.1 and the “Binding … to looped peptides” value stood at 0.6.

Consider VIGAVIIRGHLRMAG, for which, in experiment [1], the “Rabbit serum linear peptides” value is listed as 1.5 and the “Rabbit serum looped peptides” value came to 0.6.

As for VIIRGHLRMAGHPLG, in experiment [1], the “Rabbit serum linear peptides” value amounted to 0.4 and the “Rabbit serum looped peptides” value worked out at 0.6.

Consider VQQELYSPLFLTVAA, for which, in experiment [1], the “Rabbit serum linear peptides” value is 0.5 and the “Rabbit serum looped peptides” value came out at 0.2.

On to WYLHEGHQTAAFRDV, for which, in experiment [1], the “Rabbit serum linear peptides” value was 0.3 and the “Rabbit serum looped peptides” value is on record as 0.0.
